Reference: patent publication US8226943B2, “Antibodies to notch receptors” (OncoMed Pharmaceuticals, Inc., priority 2008, dated 2012)

Key:
[1] = biological target: T1, human Notch1 with residues 382-386 mutated to the corresponding human Notch2 residues (Homo sapiens, UniProt P46531, E383K/N382H/N386L/S385A); test: FACS binding to mutant human Notch1 carrying Notch2 residues; conditions: HEK 293 transiently transfected
T1 construct: several point mutants were created within full-length Notch1; expressed in transfected cells; host or cells: HEK 293, transient, co-transfected with GFP
Method: A comparison analysis of the EGF 10 regions of human Notch1, Notch2, and Notch4 and the EGF 9 region of human Notch3 (the equivalent of EGF 10 in the other Notch receptors) was performed to determine likely binding sites for 59R1 (FIG. 14A). As a result of the analysis, several point mutants were created within full-length Notch2, converting residues within EGF 10 to the corresponding amino acids in human Notch 1. Also, conversely, point mutations were made in hNotch1 EGF 10 converting residues to the corresponding hN2 residues. Mutants in full-length Notch sequences were generated by QuikChange® mutagenesis (Stratagene) and verified by sequencing. Binding to the mutants was determined by FACS analysis (FIGS. 14B and 14C). 59R1 was detected by PE-conjugated goat anti-human Fc gamma specific antibody (Jackson Immunochemicals, #109-116-170). […] The corresponding residues in hNotch3 are histidine 361, alanine 364, and isoleucine 365.
The binding epitope of 59R5 was determined. As was described in Example 3 for analysis of antibody 59R1, several point mutants were created within full-length Notch1, converting residues within EGF10 to the corresponding amino acids in human Notch 2. […] 59R1 and 59R5 were detected by PE-conjugated goat anti-human Fc gamma specific antibody (Jackson Immunochemicals, #109-116-170). […]

[2] = tested on: PN8 pancreatic tumor cells; test: PN8 pancreatic tumor xenograft growth; type: in vivo, NOD/SCID mice; conditions: for PN8 Tumor vol relative to the control group: combination with gemcitabine, control is gemcitabine alone, antibody 15 mg/kg once per week
Method: (§1) The 59R1 IgG2 antibody was also tested in vivo in the breast tumor xenograft lines OMP-B34, OMP-B39, OMP-B44, PE13, and UM-T1, the pancreas tumor xenograft line OMP-PN8, and the colon tumor xenograft line OMP-C8. These tumor xenograft lines were established by adhering to procedures described in Al-Hajj et al., 2003, Proc. Natl. Acad. Sci. USA, 100:3983-3988. Female NOD/SCID immuno-compromised mice 7-10 weeks old were used for the establishment of the breast tumor xenografts and male NOD/SCID mice were used for the OMP-Pn8 and OMP-C8 tumor-models (Harlan, Indianapolis, Ind.). The 59R1 IgG2 antibody was also tested in vivo in a Colo-205 colon tumor xenograft model. Female immunodeficient bg/nu XID mice on a Swiss CD-1 background were used for the Colo-205 xenograft tumor model. In case of the breast cancer models, slow-releasing estrogen pellets (0.36 mg) had to be implanted. Mice were subcutaneously injected on the right flank with 50,000 (OMP-B34, OMP-B39, OMP-B44, PE13, and UM-T1) or 1×10^7 (Colo-205) viable cells, respectively, in a mixture of PBS (without magnesium or calcium) and Matrigel at a 1:1 ratio. The injected total volume per mouse was 200 μl with 50% being Matrigel. Once the tumor had reached a size between 65-200 mm^3, the mice were randomized. Antibodies were administered weekly and tumors measured twice weekly. LZ1 (a human antibody that recognizes lyzozyme) or 1B711 (a murine IgG1 antibody that recognizes the hapten trinitrophenol) was used as a control antibody for treatment of each tumor type. Tumor volume was calculated as described Al-Hajj et al. (2003). Data are expressed as the mean and the mean±S.E.M. Group means were compared using Student's two-tailed, unpaired t-test. […] All statistical analysis was performed using Microsoft EXCEL and Graph Pad PRISM.
In one embodiment, NOD/SCID mice were injected with PN8 pancreatic tumor cells. The tumors were allowed to grow for approximately 33 days until they had reached an average tumor volume of 150 mm^3. The mice were treated with gemcitabine at 20 mg/kg once per week for four weeks in combination with control antibody, anti-Notch2/3 antibody 59R1, or anti-Notch2/3 antibody 59R5.
(§2) Tumor volumes and p values for each experiment are shown relative to the control group. The PE13, C28 and Colo205 studies were carried out as described in Example 14. PN8 studies were carried out as described above. For the PN8 experiment, the control is gemcitabine alone and values for 59R1 and 59R5 are the combinations with gemcitabine. Antibodies were dosed once per week at 15 mg/kg for all experiments.

PE13 breast tumor cells = test: PE13 breast tumor xenograft growth; type: in vivo, NOD/SCID mice
Method: In certain embodiments, NOD/SCID mice injected with 50,000 PE13 or T3 breast tumor cells were treated with anti-Notch2/3 antibody 59R1 or control antibody 1B7.11 two days following cell injections. Antibodies were dosed at 10 mg/kg twice week.
In a further experiment, anti-Notch2/3 antibodies were tested for an effect on breast tumor growth. NOD/SCID mice were injected with 50,000 PE13 or T3 breast tumor cells, and tumors were allowed to grow to a size of between 65 to 200 mm^3 after which mice were randomized (n=10 per experimental group), and antibodies administration begun. Animals were treated with 15 mg/kg of either control 1B7.11 antibodies or anti-Notch2/3 59R1 antibodies twice weekly. Tumor size was measured twice weekly, and tumor volume was calculated as described (see Michieli et al., 2004).
as §1
In one embodiment, NOD/SCID mice were injected with PE13 breast tumor cells. The mice were treated with anti-Notch2/3 antibody 59R1, anti-Notch2/3 antibody 59R5, or control antibody. Antibodies were dosed at 15 mg/kg once per week in a “preventative” mode where dosing was initiated two days after cell injection.
In one embodiment, to evaluate the effect of 59R5 on cancer stem cells, a tumor recurrence study was carried out in the PE13 breast tumor model. NOD/SCID mice were injected with PE13 breast tumor cells. The tumors were allowed to grow for 40 days before treatments were initiated. The mice were treated with taxol at 15 mg/kg twice per week for 5 weeks, in combination with either control antibody or anti-Notch 2/3 antibody 59R5. After 5 weeks, the taxol treatments were stopped and the antibody treatments were continued.
as §2

[3] = established tumors, 15 mg/kg once a week

T1 sequence (P46531 19-2555 N382H/E383K/S385A/N386L): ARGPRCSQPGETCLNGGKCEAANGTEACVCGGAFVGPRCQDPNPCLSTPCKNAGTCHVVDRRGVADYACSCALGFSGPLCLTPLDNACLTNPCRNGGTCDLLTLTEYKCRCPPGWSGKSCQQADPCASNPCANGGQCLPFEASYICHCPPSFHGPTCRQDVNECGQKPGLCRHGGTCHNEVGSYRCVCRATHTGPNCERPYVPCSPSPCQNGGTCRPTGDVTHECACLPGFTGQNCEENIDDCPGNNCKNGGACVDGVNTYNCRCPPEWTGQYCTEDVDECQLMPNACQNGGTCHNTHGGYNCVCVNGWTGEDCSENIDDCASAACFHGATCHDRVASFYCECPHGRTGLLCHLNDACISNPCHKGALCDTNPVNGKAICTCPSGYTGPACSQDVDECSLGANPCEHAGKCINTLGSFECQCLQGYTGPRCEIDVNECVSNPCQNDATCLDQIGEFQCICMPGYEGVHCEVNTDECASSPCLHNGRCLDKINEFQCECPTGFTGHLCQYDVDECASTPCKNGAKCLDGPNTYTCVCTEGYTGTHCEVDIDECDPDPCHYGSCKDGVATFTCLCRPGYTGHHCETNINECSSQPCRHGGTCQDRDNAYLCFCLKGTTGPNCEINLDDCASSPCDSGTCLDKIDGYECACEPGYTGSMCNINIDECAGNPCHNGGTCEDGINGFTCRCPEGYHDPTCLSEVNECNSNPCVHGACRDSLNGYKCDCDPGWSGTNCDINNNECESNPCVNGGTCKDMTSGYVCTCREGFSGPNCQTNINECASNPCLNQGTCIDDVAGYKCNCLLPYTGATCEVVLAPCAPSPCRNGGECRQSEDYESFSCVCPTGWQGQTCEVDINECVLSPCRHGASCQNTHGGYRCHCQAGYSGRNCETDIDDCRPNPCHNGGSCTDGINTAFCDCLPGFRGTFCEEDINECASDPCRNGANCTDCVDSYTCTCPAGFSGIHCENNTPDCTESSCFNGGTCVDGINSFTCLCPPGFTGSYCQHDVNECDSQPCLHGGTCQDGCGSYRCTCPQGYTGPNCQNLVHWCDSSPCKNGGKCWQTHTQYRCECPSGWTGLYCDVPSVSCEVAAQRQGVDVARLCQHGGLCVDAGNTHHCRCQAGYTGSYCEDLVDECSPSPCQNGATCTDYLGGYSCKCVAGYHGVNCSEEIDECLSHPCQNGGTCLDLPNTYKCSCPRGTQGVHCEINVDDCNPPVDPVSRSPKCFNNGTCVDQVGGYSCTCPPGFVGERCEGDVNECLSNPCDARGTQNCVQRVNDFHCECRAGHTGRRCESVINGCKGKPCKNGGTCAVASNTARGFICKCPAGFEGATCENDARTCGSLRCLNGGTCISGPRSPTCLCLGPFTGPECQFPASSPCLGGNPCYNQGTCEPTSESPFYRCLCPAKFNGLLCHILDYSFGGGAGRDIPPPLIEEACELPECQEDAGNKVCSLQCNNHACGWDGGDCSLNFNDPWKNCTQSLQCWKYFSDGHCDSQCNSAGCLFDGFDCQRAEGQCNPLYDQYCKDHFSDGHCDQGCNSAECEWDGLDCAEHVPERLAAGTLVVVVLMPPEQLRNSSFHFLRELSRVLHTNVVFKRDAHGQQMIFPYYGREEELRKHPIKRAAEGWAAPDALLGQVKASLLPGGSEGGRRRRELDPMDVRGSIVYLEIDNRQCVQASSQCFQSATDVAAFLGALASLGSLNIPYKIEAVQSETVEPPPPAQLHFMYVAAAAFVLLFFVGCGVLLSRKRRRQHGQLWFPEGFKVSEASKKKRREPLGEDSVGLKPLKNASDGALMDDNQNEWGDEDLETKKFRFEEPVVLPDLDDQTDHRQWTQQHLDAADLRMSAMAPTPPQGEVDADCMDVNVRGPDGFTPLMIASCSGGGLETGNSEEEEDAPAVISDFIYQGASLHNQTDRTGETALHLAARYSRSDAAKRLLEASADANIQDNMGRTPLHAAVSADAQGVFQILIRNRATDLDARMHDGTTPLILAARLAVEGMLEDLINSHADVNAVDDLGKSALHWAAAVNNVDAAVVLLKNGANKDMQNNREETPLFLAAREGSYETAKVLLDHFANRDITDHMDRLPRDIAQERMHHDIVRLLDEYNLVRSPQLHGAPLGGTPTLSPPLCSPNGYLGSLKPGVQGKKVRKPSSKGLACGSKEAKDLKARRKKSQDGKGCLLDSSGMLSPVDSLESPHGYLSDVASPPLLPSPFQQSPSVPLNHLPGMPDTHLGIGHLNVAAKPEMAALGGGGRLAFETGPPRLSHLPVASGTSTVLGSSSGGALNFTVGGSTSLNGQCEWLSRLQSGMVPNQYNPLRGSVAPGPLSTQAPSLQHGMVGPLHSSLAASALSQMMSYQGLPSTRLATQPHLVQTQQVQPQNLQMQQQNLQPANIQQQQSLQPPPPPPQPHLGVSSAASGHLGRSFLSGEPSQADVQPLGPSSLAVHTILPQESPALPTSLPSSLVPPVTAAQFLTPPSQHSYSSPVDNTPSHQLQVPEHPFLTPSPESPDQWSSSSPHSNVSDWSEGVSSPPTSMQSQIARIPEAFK

Row | Substance | FACS binding to mutant hNotch1 with EGF 10 residues mutated to hNotch2 residues 385-389 [1] | PN8 Tumor vol relative to the control group [2] | PN8 pancreatic tumor growth relative to control antibody [2, 3] | PE13 tumor growth compared to control (PE13 breast tumor cells; 10 mg/kg twice week, started two days following cell injections) | PE13 Tumor vol relative to the control group (PE13 breast tumor cells; 15 mg/kg once per week) | PE13 breast cancer growth relative to control antibody (PE13 breast tumor cells; [3]) | PE13 tumor growth compared to control (PE13 breast tumor cells; established tumors, 15 mg/kg twice weekly) | PN8 tumor growth, antibody in combination with gemcitabine ([2]; gemcitabine 20 mg/kg once per week for four weeks) | inhibition of PE13 tumor growth (PE13 breast tumor cells; 15 mg/kg once per week, preventative mode (dosing two days after cell injection)) | PE13 tumor recurrence after high-dose taxol treatment (PE13 breast tumor cells; taxol 15 mg/kg twice per week for 5 weeks plus antibody, then antibody only)
1 | 59R1: human IgG2 antibody binding Notch2 and Notch3; heavy and light chain SEQ ID NO:16 and 18; ATCC PTA-9547 | does bind | 0.27 | inhibit pancreatic tumor growth | significantly reduced | 0.25 | inhibit breast cancer growth | significantly reduced |  |  | 
2 | 59R5: human antibody that specifically binds human Notch 2 and human Notch 3; heavy and light chain SEQ ID NO:49 and 18; ATCC PTA-10170 | able to bind | 0.11 |  |  | 0.18 |  |  | inhibited tumor growth at a similar level as antibody 59R1 | greater than 80% | significantly delay tumor recurrence
